Experimental data as given in patent US12428401B2, “Salt of an aminopyridine derivative compound, a crystalline form thereof, and a process for preparing the same” (Yuhan Corporation, priority 2017, dated 2025).
Values joined by “and” are separate entries in the source; they are usually repeats but may differ in a detail not shown here. Equal entries are not always repeated. Structures can show the parent of a compound that is named as a salt. Where two headings read alike, the source gives them in different places.

Legend:
[1] = Pharmacokinetic comparison test in normal rats; assay type: in vivo, rats (SD rats)
Text: (§1) Specifically, the maximum plasma concentration (Cmax) and the area under the plasma concentration curve (AUClast) in the normal rats and the rats treated with esomeprazole were compared to evaluate the absorption of the drugs in the actual animals.
(§2) In order to compare the pharmacokinetic parameters, 8-week old male rats (SD rats) with a body weight of about 250 g were used as test animals.

[2] = Pharmacokinetic comparison test in beagle dogs; assay type: in vivo
Text: A comparison of the pharmacokinetic parameters (i.e., the maximum plasma concentration and the area under the plasma concentration curve) calculated therefrom are shown in Table 8 and FIG. 14.

[3] = Pharmacokinetic comparison test in rats treated with esomeprazole; assay type: in vivo, rats (SD rats)
Text: as §1, §2
A comparison of the pharmacokinetic parameters (i.e., the maximum plasma concentration and the area under the plasma concentration curve) calculated therefrom are shown in Table 7 and FIGS. 12 and 13.

[4] = accelerated conditions; for Content / Purity: HPLC; for Content Change / Purity Change / Water content Change: start to 6 months
Protocol: The five compounds were tested for stability under stress conditions and accelerated conditions.

[5] = Stability test under stress conditions (PXRD, DSC, appearance, HPLC); conditions: for DSC onset / Water content / Content / Purity / Appearance (color) / Content Change / Purity Change / Water content Change: stress conditions; for Content / Purity: HPLC; for Content Change / Purity Change / Water content Change: start to 4 weeks
[6] = Rats treated with esomeprazole (i.v. 5 mg/2 mL/kg for 3 days), oral 30 mg/5 ml/kg
[7] = esomeprazole-treated vs normal rats, listed as Comparative Example 1

C=CC(=O)Nc1cc(Nc2nccc(-n3cc(CN(C)C)c(-c4ccccc4)n3)n2)c(OC)cc1N1CCOCC1 [C. Ex. 1, N-(5-(4-(4-((dimethylamino)methyl)-3-phenyl-1H-pyrazol-1-yl)pyrimidine-2-ylamino)-4-methoxy-2-morpholinophenyl)acrylamide]
Area under the plasma concentration curve lower than that of the mesylate salt form (Example 1) ([1]; normal rats): 10.4%
Maximum plasma concentration lower than that of the mesylate salt form (Example 1) ([1]; normal rats): 11.0%
Area under the plasma concentration curve lower than that of the mesylate salt form (Example 1) [2]: 50.4%
Maximum plasma concentration lower than that of the mesylate salt form (Example 1) [2]: 40.1%
Area under the plasma concentration curve (AUClast) [3, 6]: 2636.7 ng·h/mL
Maximum plasma concentration (Cmax) [3, 6]: 223.0 ng/mL
Area under the plasma concentration curve reduced in the esomeprazole-treated rats as compared with the normal rats [3, 7]: 63.8%
Maximum plasma concentration reduced in the esomeprazole-treated rats as compared with the normal rats [3, 7]: 69.3%
Area under the plasma concentration curve lower than that of the mesylate salt form (Example 1) ([3]; rats treated with esomeprazole): 49.4%
Maximum plasma concentration lower than that of the mesylate salt form (Example 1) ([3]; rats treated with esomeprazole): 47.8%

C=CC(=O)Nc1cc(Nc2nccc(-n3cc(CN(C)C)c(-c4ccccc4)n3)n2)c(OC)cc1N1CCOCC1.Cl [C. Ex. 2, Hydrochloride Salt of N-(5-(4-(4-((dimethylamino)methyl)-3-phenyl-1H-pyrazol-1-yl)pyrimidine-2-ylamino)-4-methoxy-2-morpholinophenyl)acrylamide]
Appearance (color) ([4]; 1 mo): Y
DSC onset ([4]; 1 mo): 272 °C
Water content ([4]; 1 mo): 0.98%
Appearance (color) ([4]; 3 mos): Y
DSC onset ([4]; 3 mos): 271 °C
Water content ([4]; 3 mos): 1.47%
DSC onset ([4]; 6 mos): 271 °C
Water content ([4]; 6 mos): 1.28%
Content ([4]; 1 mo): 97.0%
Purity ([4]; 1 mo): 99.0%
Content ([4]; 3 mos): 98.3%
Purity ([4]; 3 mos): 98.9%
Content ([4]; 6 mos): 97.6%
Purity ([4]; 6 mos): 98.8%
Purity ([4]; Start): 99.0%
Appearance (color) ([4]; Start): Y
Water content ([4]; Start): 0.86%
Content Change [4]: +0.2%
Purity Change [4]: −0.2%
Water content Change [4]: +0.42%
DSC onset ([5]; 2 weeks): 269 °C
Water content ([5]; 2 weeks): 1.23%
DSC onset ([5]; 4 weeks): 269 °C
Water content ([5]; 4 weeks): 1.44%
Content ([5]; 2 weeks): 96.2%
Purity ([5]; 2 weeks): 99.1%
Content ([5]; 4 weeks): 95.2%
Purity ([5]; 4 weeks): 99.1%
Content ([5]; Start): 97.4%
Purity ([5]; Start): 99.0%
Appearance (color) ([5]; Start): Yellow
DSC onset ([5]; Start): 267 °C
Water content ([5]; Start): 0.86%
Content Change [5]: −2.2%
Purity Change [5]: +0.1%
Water content Change [5]: +0.58%

C=CC(=O)Nc1cc(Nc2nccc(-n3cc(CN(C)C)c(-c4ccccc4)n3)n2)c(OC)cc1N1CCOCC1.O=C(O)CC(O)(CC(=O)O)C(=O)O [C. Ex. 3, Citrate Salt of N-(5-(4-(4-((dimethylamino)methyl)-3-phenyl-1H-pyrazol-1-yl)pyrimidine-2-ylamino)-4-methoxy-2-morpholinophenyl)acrylamide]
Water content ([4]; 1 mo): 0.83%
DSC onset ([4]; 3 mos): 180 °C
Water content ([4]; 3 mos): 3.05%
DSC onset ([4]; 6 mos): 183 °C
Water content ([4]; 6 mos): 3.50%
Content ([4]; 1 mo): 100.5%
Purity ([4]; 1 mo): 98.9%
Content ([4]; 3 mos): 101.0%
Purity ([4]; 3 mos): 98.9%
Content ([4]; 6 mos): 98.7%
Purity ([4]; 6 mos): 97.7%
Content ([4]; Start): 100.0%
Purity ([4]; Start): 99.2%
Water content ([4]; Start): 0.65%
Content Change [4]: −1.3%
Purity Change [4]: −1.5%
Water content Change [4]: +2.85%
DSC onset ([5]; 2 weeks): 182 °C
Water content ([5]; 2 weeks): 0.62%
DSC onset ([5]; 4 weeks): 181 °C
Water content ([5]; 4 weeks): 1.47%
Content ([5]; 2 weeks): 98.9%
Purity ([5]; 2 weeks): 98.8%
Content ([5]; 4 weeks): 98.6%
Purity ([5]; 4 weeks): 98.7%
Content ([5]; Start): 100.0%
Purity ([5]; Start): 99.2%
DSC onset ([5]; Start): 182 °C
Water content ([5]; Start): 0.65%
Content Change [5]: −1.4%
Purity Change [5]: −0.5%
Water content Change [5]: +0.82%

C=CC(=O)Nc1cc(Nc2nccc(-n3cc(CN(C)C)c(-c4ccccc4)n3)n2)c(OC)cc1N1CCOCC1.CCS(=O)(=O)O [C. Ex. 4, Esilate Salt of N-(5-(4-(4-((dimethylamino)methyl)-3-phenyl-1H-pyrazol-1-yl)pyrimidine-2-ylamino)-4-methoxy-2-morpholinophenyl)acrylamide]
DSC onset ([4]; 1 mo): 222 °C
Water content ([4]; 1 mo): 2.48%
Water content ([4]; 3 mos): 2.98%
DSC onset ([4]; 6 mos): 218 °C
Water content ([4]; 6 mos): 3.17%
Content ([4]; 1 mo): 96.1%
Purity ([4]; 1 mo): 99.1%
Content ([4]; 3 mos): 95.1%
Purity ([4]; 3 mos): 99.0%
Content ([4]; 6 mos): 91.4%
Purity ([4]; 6 mos): 98.4%
Purity ([4]; Start): 99.5%
Appearance (color) ([4]; Start): Y
Content Change [4]: −5.1%
Purity Change [4]: −1.1%
Water content Change [4]: +2.02%
DSC onset ([5]; 2 weeks): 222, ° C. and 227 °C
Water content ([5]; 2 weeks): 1.37%
Appearance (color) ([5]; 4 weeks): Violet
DSC onset ([5]; 4 weeks): 172, ° C. and 193, ° C. and 219 °C
Water content ([5]; 4 weeks): 3.81%
Content ([5]; 2 weeks): 94.7%
Purity ([5]; 2 weeks): 99.0%
Content ([5]; 4 weeks): 89.5%
Purity ([5]; 4 weeks): 98.9%
Content ([5]; Start): 96.5%
Appearance (color) ([5]; Start): Yellow
DSC onset ([5]; Start): 223 °C
Water content ([5]; Start): 1.15%
Content Change [5]: −7%
Purity Change [5]: −0.6%
Water content Change [5]: +2.03%

C=CC(=O)Nc1cc(Nc2nccc(-n3cc(CN(C)C)c(-c4ccccc4)n3)n2)c(OC)cc1N1CCOCC1 [Ex. 1, mesylate salt of N-(5-(4-(4-((dimethylamino)methyl)-3-phenyl-1H-pyrazol-1-yl)pyrimidine-2-ylamino)-4-methoxy-2-morpholinophenyl)acrylamide]
DSC onset ([4]; 1 mo): 214 °C
Water content ([4]; 1 mo): 2.73%
DSC onset ([4]; 3 mos): 214 °C
Water content ([4]; 3 mos): 3.19%
DSC onset ([4]; 6 mos): 214 °C
Water content ([4]; 6 mos): 3.01%
Content ([4]; 1 mo): 98.9%
Purity ([4]; 1 mo): 99.3%
Content ([4]; 3 mos): 98.9%
Purity ([4]; 3 mos): 99.3%
Content ([4]; 6 mos): 99.1%
Purity ([4]; 6 mos): 99.3%
Content ([4]; Start): 98.8%
Purity ([4]; Start): 99.2%
DSC onset ([4]; Start): 214 °C
Water content ([4]; Start): 2.48%
Content Change [4]: +0.3%
Purity Change [4]: +0.1%
Water content Change [4]: +0.53%
AUC(0-t) ([1]; male, SD, rat, plasma, 30 mg/kg, Normal rats, oral 30 mg/5 ml/kg in 0.5% methylcellulose, read-out: Area under the plasma concentration curve (AUClast)): 8140 ng·h/mL
Cmax ([1]; male, SD, rat, plasma, 30 mg/kg, Normal rats, oral 30 mg/5 ml/kg in 0.5% methylcellulose, read-out: Maximum plasma concentration (Cmax)): 816 ng/mL
Stability (overall conclusion of the stability test) ([5]; stress and accelerated conditions together, purity, water content, PXRD pattern, appearance): excellent in stability
Appearance (color) ([5]; 2 weeks): White
DSC onset ([5]; 2 weeks): 214 °C
Water content ([5]; 2 weeks): 2.71%
Appearance (color) ([5]; 4 weeks): White
DSC onset ([5]; 4 weeks): 214 °C
Water content ([5]; 4 weeks): 2.70%
Content ([5]; 2 weeks): 97.7%
Purity ([5]; 2 weeks): 99.3%
Content ([5]; 4 weeks): 98.9%
Purity ([5]; 4 weeks): 99.3%
Content ([5]; Start): 98.8%
Purity ([5]; Start): 99.2%
Appearance (color) ([5]; Start): White
DSC onset ([5]; Start): 214 °C
Water content ([5]; Start): 2.48%
Content Change [5]: +0.1%
Purity Change [5]: +0.1%
Water content Change [5]: +0.22%
AUC(0-t) ([2]; male, dog, plasma, 5 mg/kg, oral 5 mg/2 mL/kg in 0.5% methylcellulose, read-out: Area under the plasma concentration curve (AUClast)): 812 ng·h/mL
Cmax ([2]; male, dog, plasma, 5 mg/kg, oral 5 mg/2 mL/kg in 0.5% methylcellulose, read-out: Maximum plasma concentration (Cmax)): 135 ng/mL
AUC(0-t) ([3]; male, SD, rat, plasma, po, 30 mg/kg, Rats treated with esomeprazole (i.v. 5 mg/2 mL/kg for 3 days), oral 30 mg/5 ml/kg, read-out: Area under the plasma concentration curve (AUClast)): 5210 ng·h/mL
Cmax ([3]; male, SD, rat, plasma, po, 30 mg/kg, Rats treated with esomeprazole (i.v. 5 mg/2 mL/kg for 3 days), oral 30 mg/5 ml/kg, read-out: Maximum plasma concentration (Cmax)): 428 ng/mL
